Where a name gives a salt, the structure may show the parent alone.
System: HT-29 cells
Test: HT-29 necroptosis cell viability assay (TNF-α/SMAC mimetic/zVAD-FMK, CellTiter-Glo)
Format: cell-based
Conditions: Homo sapiens, HT-29, HT-29 necroptosis cell viability assay; class symbols for IC50; read-out: Activity
Outline: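 HT-29 cells (~5,000/well, overnight) in FBS-free McCoy's 5A with TNF-α 10 ng/ml, SMAC mimetic 6 μM and zVAD-FMK 10 μM plus 10-point 1:3 compound titration, 20 h at 37°C. ATP measured by CellTiter-Glo luminescence; IC50 as geometric mean of duplicates.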

Row | SMILES | IC50 [nM]
1 | CC(C)(C)OC(=O)N1CC2(CCN2c2cc(Oc3ccc(-n4ncn(Cc5c(F)cccc5F)c4=O)cc3)ccn2)C1 [Example 499, tert-butyl 1-(4-(4-(4-(2,6-difluorobenzyl)-5-oxo-4,5-dihydro-1H-1,2,4-triazol-1-yl)phenoxy)pyridin-2-yl)-1,6-diazaspiro[3.3]heptane-6-carboxylate] | 100 to 1000
2 | COC1(C)CN(c2cc(Oc3ccc(-n4ncn(Cc5c(F)cccc5F)c4=O)cc3)ccn2)C1 [Example 500, 4-(2,6-difluorobenzyl)-2-(4-((2-(3-methoxy-3-methylazetidin-1-yl)pyridin-4-yl)oxy)phenyl)-2,4-dihydro-3H-1,2,4-triazol-3-one] | < 100
3 | CCOC1(C)CN(c2cc(Oc3ccc(-n4ncn(Cc5c(F)cccc5F)c4=O)cc3Cl)c(F)cn2)C1 [Example 501, 2-(3-chloro-4-((2-(3-ethoxy-3-methylazetidin-1-yl)-5-fluoropyridin-4-yl)oxy)phenyl)-4-(2,6-difluorobenzyl)-2,4-dihydro-3H-1,2,4-triazol-3-one] | < 100
4 | CCOC1(C)CN(c2nccc(Oc3ccc(-n4ncn(Cc5c(F)cccc5F)c4=O)cc3Cl)c2F)C1 [Example 502, 2-(3-chloro-4-((2-(3-ethoxy-3-methylazetidin-1-yl)-3-fluoropyridin-4-yl)oxy)phenyl)-4-(2,6-difluorobenzyl)-2,4-dihydro-3H-1,2,4-triazol-3-one] | < 100
5 | CCOC1(C)CN(c2nccc(Oc3ccc(-n4ncn(Cc5c(F)cccc5F)c4=O)cc3Cl)c2Cl)C1 [Example 503, 2-(3-chloro-4-((3-chloro-2-(3-ethoxy-3-methylazetidin-1-yl)pyridin-4-yl)oxy)phenyl)-4-(2,6-difluorobenzyl)-2,4-dihydro-3H-1,2,4-triazol-3-one] | < 100
6 | CCOC1(C)CN(c2cc(Oc3ccc(-n4ncn(Cc5c(F)cccc5F)c4=O)cc3Cl)c(Cl)cn2)C1 [Example 504, 2-(3-chloro-4-((5-chloro-2-(3-ethoxy-3-methylazetidin-1-yl)pyridin-4-yl)oxy)phenyl)-4-(2,6-difluorobenzyl)-2,4-dihydro-3H-1,2,4-triazol-3-one] | < 100
7 | CC1(OC(F)(F)F)CN(c2cc(Oc3ccc(-n4ncn(Cc5c(F)cccc5F)c4=O)cc3F)c(F)cn2)C1 [Example 505, 4-(2,6-difluorobenzyl)-2-(3-fluoro-4-((5-fluoro-2-(3-methyl-3-(trifluoromethoxy)azetidin-1-yl)pyridin-4-yl)oxy)phenyl)-2,4-dihydro-3H-1,2,4-triazol-3-one] | < 100
8 | CC1(OC(F)(F)F)CN(c2cc(Oc3ccc(-n4ncn(Cc5c(F)cccc5F)c4=O)cc3F)c(Cl)cn2)C1 [Example 506, 2-(4-((5-chloro-2-(3-methyl-3-(trifluoromethoxy)azetidin-1-yl)pyridin-4-yl)oxy)-3-fluorophenyl)-4-(2,6-difluorobenzyl)-2,4-dihydro-3H-1,2,4-triazol-3-one] | < 100
9 | Cc1nc(N2CC(C)(N)C2)sc1C(=O)c1ccc(-n2ncn(Cc3c(F)cccc3F)c2=O)cc1 [Example 507, 2-(4-(2-(3-amino-3-methylazetidin-1-yl)-4-methylthiazole-5-carbonyl)phenyl)-4-(2,6-difluorobenzyl)-2,4-dihydro-3H-1,2,4-triazol-3-one trifluoroacetate] | 100 to 1000
10 | Cc1nc(N2CC(C)(NC(=O)OC(C)(C)C)C2)sc1C(=O)c1ccc(-n2ncn(Cc3c(F)cccc3F)c2=O)cc1 [Example 508, tert-butyl (1-(5-(4-(4-(2,6-difluorobenzyl)-5-oxo-4,5-dihydro-1H-1,2,4-triazol-1-yl)benzoyl)-4-methylthiazol-2-yl)-3-methylazetidin-3-yl)carbamate] | 100 to 1000
11 | Cc1nc(N2CC(C)(N)C2)sc1Cc1ccc(-n2ncn(Cc3c(F)cccc3F)c2=O)cc1 [Example 509, 2-(4-((2-(3-amino-3-methylazetidin-1-yl)-4-methylthiazol-5-yl)methyl)phenyl)-4-(2,6-difluorobenzyl)-2,4-dihydro-3H-1,2,4-triazol-3-one] | < 100
12 | Cc1nc(N2CC(C)(C#N)C2)sc1C(=O)c1ccc(-n2ncn(Cc3c(F)cccc3F)c2=O)cc1 [Example 510, 1-(5-(4-(4-(2,6-difluorobenzyl)-5-oxo-4,5-dihydro-1H-1,2,4-triazol-1-yl)benzoyl)-4-methylthiazol-2-yl)-3-methylazetidine-3-carbonitrile] | 100 to 1000
13 | Cc1nc(N2CC(C)(C#N)C2)sc1C(O)c1ccc(-n2ncn(Cc3c(F)cccc3F)c2=O)cc1 (centres unmarked) [Example 511, 1-(5-((4-(4-(2,6-difluorobenzyl)-5-oxo-4,5-dihydro-1H-1,2,4-triazol-1-yl)phenyl)(hydroxy)methyl)-4-methylthiazol-2-yl)-3-methylazetidine-3-carbonitrile] | 1000 to 10000
14 | Cc1nc(N2CC(C)(C#N)C2)sc1Cc1ccc(-n2ncn(Cc3c(F)cccc3F)c2=O)cc1 [Example 512, 1-(5-(4-(4-(2,6-difluorobenzyl)-5-oxo-4,5-dihydro-1H-1,2,4-triazol-1-yl)benzyl)-4-methylthiazol-2-yl)-3-methylazetidine-3-carbonitrile] | < 100
15 | Cc1nc(N2CC(C)(N)C2)sc1C(C)c1ccc(-n2ncn(Cc3c(F)cccc3F)c2=O)cc1 (centres unmarked) [Example 513, 2-[4-[1-[2-(3-amino-3-methyl-azetidin-1-yl)-4-methyl-thiazol-5-yl]ethyl]phenyl]-4-[(2,6-difluorophenyl)methyl]-1,2,4-triazol-3-one; 2,2,2-trifluoroacetic acid] | 100 to 1000
16 | Cc1nc(N2CC(C)(NC(=O)OC(C)(C)C)C2)sc1C(C)c1ccc(-n2ncn(Cc3c(F)cccc3F)c2=O)cc1 (centres unmarked) [Example 514, tert-butyl (1-(5-(1-(4-(4-(2,6-difluorobenzyl)-5-oxo-4,5-dihydro-1H-1,2,4-triazol-1-yl)phenyl)ethyl)-4-methylthiazol-2-yl)-3-methylazetidin-3-yl)carbamate] | < 100
17 | Cc1nc(N2CC(C)(NC(=O)OC(C)(C)C)C2)sc1C(C)(O)c1ccc(-n2ncn(Cc3c(F)cccc3F)c2=O)cc1 (centres unmarked) [Example 516, tert-butyl (1-(5-(1-(4-(4-(2,6-difluorobenzyl)-5-oxo-4,5-dihydro-1H-1,2,4-triazol-1-yl)phenyl)-1-hydroxyethyl)-4-methylthiazol-2-yl)-3-methylazetidin-3-yl)carbamate] | < 100
18 | CCOC1CN(c2nn(C)c(Oc3ccc(-n4ncn(Cc5c(F)cccc5F)c4=O)cc3)c2N)C1 [Example 517, 2-(4-((4-amino-3-(3-ethoxyazetidin-1-yl)-1-methyl-1H-pyrazol-5-yl)oxy)phenyl)-4-(2,6-difluorobenzyl)-2,4-dihydro-3H-1,2,4-triazol-3-one] | 1000 to 10000
19 | Cc1ncc(C#N)cc1Oc1ccc(-n2ncn(Cc3c(F)cccc3F)c2=O)cc1 [Example 518, 5-(4-(4-(2,6-difluorobenzyl)-5-oxo-4,5-dihydro-1H-1,2,4-triazol-1-yl)phenoxy)-6-methylnicotinonitrile] | 1000 to 10000
20 | CC(C)(C)CC(=O)Nc1cc(Oc2ccc(-n3ncn(Cc4c(F)cccc4F)c3=O)cc2)ccn1 [Example 519, N-[4-[4-[4-[(2,6-difluorophenyl)methyl]-5-oxo-1,2,4-triazol-1-yl]phenoxy]-2-pyridyl]-3,3-dimethyl-butanamide] | 100 to 1000

From patent US20250179061A1 (SIRONAX LTD., priority 2022, published 2025)
